Measurements published in patent US9770421B2, “Uses for idebenone and related benzoquinones in metabolic disorders and other PPAR α/γ related diseases and conditions” (INDANIO BIOSCIENCE INC., priority 2013, dated 2017).
“Also recorded” adds a separate entry of the source.

Legend:
C57Bl/6 db/db mice = assay: db/db mouse study (NAFLD features); type: in vivo; details: for Decrease in liver weight in comparison to vehicle treated mice: 3 weeks
Experimental: Db/db study: Forty male C57Bl/6 db/db mice (called B6.BKS(D)-Lepr db/J) were ordered from Jackson Laboratories (#000697) at 7 weeks of age. Mice were housed individually with free access to food (2016 Teklad Global 16% Protein Rodent Diet) and water on a 14 hour light/dark cycle (6 a.m. to 8 p.m. light). […] Food was exchanged on a daily bases. Harlan corn cob bedding was provided and was changed every week or as needed. Following a 1 week acclimation, 32 mice were chosen based on desired body weight range. Remaining mice were euthanized. Mice were randomized by body weight into four treatment groups (n=8) by body weight. Dosing occurred for 21 days. Mice were euthanized by CO2 euthanasia and livers were fixed in neutral buffered formalin (NBF) for 24 h, followed by a one day fixation in 30% Sucrose and 10% Sucrose. Oil O Red staining was performed through the Pathology Research Program at the University Health Network in Toronto [46]. [table] 100 mg of db/db livers were homogenized in RIPA buffer and protein concentration was quantified using a BCA protein assay kit (Cell signalling #7780) followed by measurement of ‘Thiobarbituric Acid Reactive Substances’ (TBARS) using a TBARS assay kit (Cayman Chemicals #10009055). Total RNA was extracted from 100 mg of db/db livers using RNA STAT-60 (Tel-Test, Inc.), treated with DNase I (RNase-free, Roche), and reverse transcribed into cDNA with random hexamers using the High Capacity Reverse transcription system (Applied Biosystems, ABI). Primers used are shown below and were validated as previously described. Real-time QPCR reactions were performed on an ABI 7900 in 384-well plates containing 12.5 ng cDNA, 150 nM of each primer, and 5 μl 2×SYBR Green PCR Master Mix (ABI) in a 10 μl total volume. Relative mRNA levels were calculated using the comparative Ct method normalized to cyclophilin mRNA.

[1] = system: GFP-expressing leukocytes recruited in response to CuSO4; assay: Zebrafish inflammation assay (CuSO4); type: in vivo
Experimental: Assay was performed as described in [47]. Fifteen dechorionated 55 hpf (hours post fertilization) embryos were transferred in each well of 6-well plates in 6 ml of embryo water. Idebenone was added at increasing concentrations (0.25, 0.75, 1.5, 3 and 5 μM). Embryos were incubated in the dark for 1 hr at 28 C, followed by a second 40 min incubation with copper sulfate (CuSO4) at a final concentration of 10 μM at 28 C in the dark. Embryos were then transferred to Eppendorf tubes and fixed in 4% paraformaldehyde in 1×PBS overnight at 4 C in the dark. Numbers of GFP+ cells were counted along the lateral line/neuromast clusters.
Previous studies have shown that PPAR agonists have anti-inflammatory properties, and can be used to treat a variety of inflammatory responses. To test if this is also true for idebenone, we used a zebrafish model of inflammation. Exposure of fish larvae to copper sulfate causes non-invasive damage to neuromast cells, which form external clusters along the lateral midline. This inflammation can be visualized via the recruitment of GFP-expressing leukocytes. As expected, this recruitment of GFP positive cells could be alleviated by addition of the known anti-inflammatory agent ibuprofen (FIG. 11).

PPARδ/β = molecular target: T1, PPARδ/β (Homo sapiens, UniProt Q03181); assay: PPARδ/β ligand trap transgenic zebrafish line; details: in vivo
T1 construct: expressed in transfected cells; host or cells: transgenic zebrafish embryos (ligand-trap line)
T1 sequence (Q03181 211-439 limits assumed): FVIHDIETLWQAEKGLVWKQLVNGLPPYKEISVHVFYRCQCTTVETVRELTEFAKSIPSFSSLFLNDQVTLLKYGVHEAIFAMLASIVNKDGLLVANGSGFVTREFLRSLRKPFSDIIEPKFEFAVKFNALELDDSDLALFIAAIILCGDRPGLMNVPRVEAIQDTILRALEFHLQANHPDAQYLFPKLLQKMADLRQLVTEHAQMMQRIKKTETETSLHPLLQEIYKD
Experimental: To test for specificity, idebenone and CoQ10 were also tested on PPARα, and PPARδ/β receptors in vivo and in vitro. […] The same relative responses were obtained with HEK 293 cells grown in culture and transfected with PPAR expression vectors and luciferase reporters (FIG. 5).

PPARα LBD = molecular target: T2, PPARα LBD (Homo sapiens, UniProt Q07869); assay: In vitro co-purification with His-tagged PPARα LBD, MS; type: binding; details: incubated with 10 μM idebenone
T2 construct: His-tagged PPARα, δ and γ LBDs were expressed in bacteria, Ni-NTA purified; His; made in house; host or cells: bacteria (E. coli)
T2 sequence (Q07869 239-466 limits assumed): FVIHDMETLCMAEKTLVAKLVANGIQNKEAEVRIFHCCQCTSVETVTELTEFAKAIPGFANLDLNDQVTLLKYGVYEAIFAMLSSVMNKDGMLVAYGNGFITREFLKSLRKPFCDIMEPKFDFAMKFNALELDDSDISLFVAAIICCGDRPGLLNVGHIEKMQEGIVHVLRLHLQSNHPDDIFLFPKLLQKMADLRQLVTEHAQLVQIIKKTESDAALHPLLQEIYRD
Experimental: To see if idebenone can bind to directly to other PPAR LBDs, His-tagged PPARα, δ and γ LBDs were expressed in bacteria, Ni-NTA purified and incubated with 10 μM idebenone. After several washes in a 10 kDa cut off Amicon centrifuge filter (Millipore), lipids were extracted and analyzed by MS.

Question: With `COC1=C(OC)C(=O)C(CCCCCCCCCCO)=C(C)C1=O` [Idebenone, 2-(10-hydroxydecyl)-5,6-dimethoxy-3-methyl-2,5-cyclohexadiene-1,4-dione] as the compound, how does the “Histological NAFLD features of liver” value (C57Bl/6 db/db mice; 3 weeks in food) read?
Answer: reversed these histological NAFLD

Question: And the “Decrease in liver weight in comparison to vehicle treated mice” value (C57Bl/6 db/db mice; 900 mpk in food)?
Answer: 3%

Question: And the “Decrease in liver weight in comparison to vehicle treated mice” value (C57Bl/6 db/db mice; 1800 mpk in food)?
Answer: 6.5%

Question: And the “Liver ADFP mRNA expression (QPCR)” value (C57Bl/6 db/db mice; 21 days)?
Answer: down regulated

Question: And the “Liver PLIN4 mRNA expression (QPCR)” value (C57Bl/6 db/db mice; 21 days)?
Answer: down regulated

Question: What about the “Liver lipid content (Oil Red O staining)” value (C57Bl/6 db/db mice; 21 days, 900/1800 mpk idebenone, 10 mpk rosiglitazone) of the same compound?
Answer: significant dose-dependent decrease in fat; also recorded: significant dose dependent decrease in fat

Question: What about the “Liver lipid peroxides (TBARS)” value (C57Bl/6 db/db mice; liver homogenates, 21 days) of the same compound?
Answer: reduced

Question: What about the “Recruitment of GFP positive leukocytes (anti-inflammatory activity)” value ([1]; 10 μM CuSO4, 55 hpf embryos) of the same compound?
Answer: robust anti-inflammatory agent; also recorded: anti-inflammatory activity

Question: And the “Concentration at which anti-inflammatory activity is detectable” value ([1]; idebenone 0.25-5 μM tested)?
Answer: sub micromolar

Question: And the “Response of PPARδ/β transgenic line” value (PPARδ/β)?
Answer: no response

Question: What about the “Binding to PPARα LBD (co-purification, MS)” value (PPARα LBD) of the same compound?
Answer: strong binding
